Experimental data as given in PubChem BioAssay AID2060894 (Molecular Pharmacology Branch, DTP, NCI, 2025).

Test system: K12877-001-R-J1-PDC complex spheroid viability
Experiment: Anticancer human tumor K12877-001-R-J1-PDC patient-derived lung adenocarcinoma cell line growth inhibition [RAS]
Conditions: for IC50: curve of first compound; for viability, T/C: stronger effect = lower value; active = viability on the fitted dose curve at most 10% of control; inactive = the rest
In short: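 Agents were tested in combination matrices in half-log decrements from a top concentration at or near clinical Cmax (10 microM if undetermined). Targets were multi-cell spheroids of tumour lines plus HUVEC and MSC stromal cells.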
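Note: spheroids exposed to agents for one week before readout.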
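Throughout, for viability, T/C: tumour cells co-cultured with HUVEC and mesenchymal stem cells in spheroids.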

C[C@@H](NC(=O)c1ncnc(N)c1Cl)c1ncc(C(=O)Nc2cc(C(F)(F)F)c(Cl)cn2)s1 + C#Cc1c(F)ccc2cc(O)cc(-c3ncc4c(N5CC6CCC(C5)N6)nc(OCC56CCCN5CC(F)C6)nc4c3F)c12
inactive: viability, T/C (second compound 0.0316 µM, first compound 0.0316 µM) 108% | viability, T/C (second compound 0.0316 µM, first compound 0.1 µM) 101% | viability, T/C (second compound 0.0316 µM, first compound 0.316 µM) 113% | viability, T/C (second compound 0.0316 µM, first compound 1 µM) 107% | viability, T/C (second compound 0.0316 µM, first compound 3.16 µM) 99% | viability, T/C (second compound 0.0316 µM, first compound 10 µM) 102% | viability, T/C (second compound 0.1 µM, first compound 0.0316 µM) 94.4% | viability, T/C (second compound 0.1 µM, first compound 0.1 µM) 96.2% | viability, T/C (second compound 0.1 µM, first compound 0.316 µM) 93.5% | viability, T/C (second compound 0.1 µM, first compound 1 µM) 103% | viability, T/C (second compound 0.1 µM, first compound 3.16 µM) 92.5% | viability, T/C (second compound 0.1 µM, first compound 10 µM) 97.9% | viability, T/C (second compound 0.316 µM, first compound 0.0316 µM) 96.9% | viability, T/C (second compound 0.316 µM, first compound 0.1 µM) 105% | viability, T/C (second compound 0.316 µM, first compound 0.316 µM) 97.4% | viability, T/C (second compound 0.316 µM, first compound 1 µM) 101% | viability, T/C (second compound 0.316 µM, first compound 3.16 µM) 108% | viability, T/C (second compound 0.316 µM, first compound 10 µM) 98.6% | viability, T/C (second compound 1 µM, first compound 0.0316 µM) 87.7% | viability, T/C (second compound 1 µM, first compound 0.1 µM) 105% | viability, T/C (second compound 1 µM, first compound 0.316 µM) 102% | viability, T/C (second compound 1 µM, first compound 1 µM) 108% | viability, T/C (second compound 1 µM, first compound 3.16 µM) 106% | viability, T/C (second compound 1 µM, first compound 10 µM) 98.9% | viability, T/C (second compound 3.16 µM, first compound 0.0316 µM) 107% | viability, T/C (second compound 3.16 µM, first compound 0.1 µM) 104% | viability, T/C (second compound 3.16 µM, first compound 0.316 µM) 104% | viability, T/C (second compound 3.16 µM, first compound 1 µM) 106% | viability, T/C (second compound 3.16 µM, first compound 3.16 µM) 111% | viability, T/C (second compound 3.16 µM, first compound 10 µM) 98.3% | viability, T/C (second compound 10 µM, first compound 0.0316 µM) 106% | viability, T/C (second compound 10 µM, first compound 0.1 µM) 91.7% | viability, T/C (second compound 10 µM, first compound 0.316 µM) 107% | viability, T/C (second compound 10 µM, first compound 1 µM) 98% | viability, T/C (second compound 10 µM, first compound 3.16 µM) 107% | viability, T/C (second compound 10 µM, first compound 10 µM) 96.7%
> 10 µM: IC50 (second compound 0.0316 µM) | IC50 (second compound 0.1 µM) | IC50 (second compound 0.316 µM) | IC50 (second compound 1 µM) | IC50 (second compound 3.16 µM) | IC50 (second compound 10 µM)
